The numbers were not newly measured in patent publication US20070032460A1, “Use of voacamine and related compounds in the treatment of malaria” (priority 2005, published 2007), which cites them from elsewhere.

For this data set, the system named is multi-drug resistant tumor cells. The note with it: cited from earlier work.

With `CC=C1CN(C)C2Cc3c([nH]c4ccccc34)C(c3cc4[nH]c5c(c4cc3OC)CCN3CC4CC(CC)C3C5(C(=O)OC)C4)CC1C2C(=O)OC` (stereo not shown) [VOA, Voacamine], the “effect on vinblastine-mediated cytotoxicity” value is reported as “enhance vinblastine-mediated cytotbxicity”.
